# Source: patent US20250017849A1 (ETH ZURICH, priority 2021, published 2025)
# Tests used:
# [1] = dog, in vivo
# Method: As a control formulation, enteric-coated (Eudragit® L100-55, Essen, Germany) capsules containing commercial Minirin® drug tablets (6 pieces containing 1.2 mg desmopressin in total) was given orally to the dog.
# A 3D printed clamp containing a cavity for the suction patch containing 1.2 mg desmopressin, 1.2 mg PVA, and 5.7 mg NaTaC was attached to the dog's mucosa, ensuring similar conditions (i.e., enclosed environment, close contact to the mucosa, same sample preparation and loading) as the applied suction patch, but […] and without negative pressure and the resulting tissue deformation.
# The dogs were anesthetized for the duration of the experiment (3 h). […] Blood samples were collected in K2EDTA tubes immediately followed by centrifugation at 1700 G for 10 min at 4° C. Subsequently, the plasma was stored in clear polypropylene vials at −80° C. until further analysis. The drug plasma concentration was evaluated using LC-MS/MS method. Briefly, an aliquot of 900 μL dog plasma sample was mixed with 10 μL internal standard (Goserelin; 25 ng/mL) and 300 μL 4% H3PO4 acidified water into 1.5 mL Eppendorf tubes. The plasma sample was then extracted using Oasis™ WAX solid-phase extraction cartridges. […] Samples were analyzed in TOF-MRM mode with a quantification limit of […]. […]
# [2] = pharmacokinetic study of semaglutide mucosal suction patch in beagle dogs; format: in vivo; conditions: patch with 9 mg semaglutide, 1.2 mg PVA, 11.7 mg NaTaC
# Method: Briefly, an aliquot of 900 μL dog plasma sample was mixed with 10 μL internal standard (Goserelin; 25 ng/mL) and 300 μL 4% H3PO4 acidified water into 1.5 mL Eppendorf tubes. The plasma sample was then extracted using Oasis™ WAX solid-phase extraction cartridges.
# The drug plasma concentration was evaluated using an LC-MS/MS method as described in Example 11.
# porcine buccal mucosa [3] = test: ex vivo effect of hypobaric pressure on diffusion of marker molecule in porcine buccal mucosa; format: in vitro ADME; conditions: 54 μg Cy5, 2.1 mg C10, 1.2 mg PVA, pressure set to 30 kPa, 37° C., 3 h
# Method: The device could continuously monitor and control the pressure inside the patch to a constant value, e.g., 30 kPa. For the application, the buccal tissue was prepared as described above and placed in a 6-well plate that is filled with DMEM buffer. […] Subsequently, the pressure was set by the reduction valve to 30 kPa and left in the 37° C. incubators for 3 h. Afterwards, the vacuum pump was turned off and the mucosal suction patches were detached. The tissue specimen was processed as described before for fluorescent imaging. The intensity of each image was converted to the equivalent of 150 ms exposure time to allow the comparability. When plotting the fluorescent intensity-distance profile, the absolute intensity was utilized instead of the normalized in order to compare the pressure-related permeation enhancing effects among different samples.
# [4] = oral formulation, even in the presence of permeation enhancers; cited from earlier work
# porcine buccal mucosa [5] = test: ex vivo permeation of surrogates through porcine buccal mucosa with mucosal suction patch; format: in vitro ADME; conditions: patch with surrogate, 1.2 mg PVA, 5.7 mg NaTaC, 3 h
# Method: Specimen were permeabilized with a 0.5% Trition™ X100 PBS buffered solution for 15 min, washed for 3 min in PBS and incubated with a PBS buffered solution of 0.1% iFluor™ 488-conjugated phalloidin (F-Actin stain) and 0.1% Hoechst 33342 (Nucleous stain) for 30 min.
# Fluorescence images were obtained with a widefield microscope (Leica DMI 6000) at 20× magnification in the tile scan mode and merged to a single image. The specimen was excited at 590-650 nm and the emission filtered from 662-738 nm. To evaluate the penetration depth of the surrogate, images were processed as grayscale with Fiji-ImageJ™ software. Line profiles of the grayscale intensity were obtained by drawing multiple straight lines vertical to the surface of the mucosa lining. The obtained intensity-distance profiles were transferred to Microsoft Excel™ and MatLab™ for further processing. The autofluorescence was first corrected by subtracting the averaged baseline intensity multiplied by 3 times its standard deviation obtained from a lower laying region of the tissue. The maximum intensity was set to 100% and the corresponding distance value was set to zero to normalize the drug distribution profile. […]
# The molecular weight range of administrable drugs was evaluated ex-vivo on porcine buccal mucosa tissue by applying drug surrogates with different molecular weights. […]
molecule,measurement,setting,value
NC(=O)CC[C@@H]1NC(=O)[C@H](Cc2ccccc2)NC(=O)[C@H](Cc2ccc(O)cc2)NC(=O)CCSSC[C@@H](C(=O)N2CCC[C@H]2C(=O)N[C@H](CCCN=C(N)N)C(=O)NCC(N)=O)NC(=O)[C@H](CC(N)=O)NC1=O [desmopressin],bioavailability higher than commercial tablets,[1],35%
CC[C@H](C)[C@H](NC(=O)[C@H](Cc1ccccc1)NC(=O)[C@H](CCC(=O)O)NC(=O)[C@H](CCCCNC(=O)COCCOCCNC(=O)COCCOCCNC(=O)CC[C@H](NC(=O)CCCCCCCCCCCCCCCCC(=O)O)C(=O)O)NC(=O)[C@H](C)NC(=O)[C@H](C)NC(=O)[C@H](CCC(N)=O)NC(=O)CNC(=O)[C@H](CCC(=O)O)NC(=O)[C@H](CC(C)C)NC(=O)[C@H](Cc1ccc(O)cc1)NC(=O)[C@H](CO)NC(=O)[C@H](CO)NC(=O)[C@@H](NC(=O)[C@H](CC(=O)O)NC(=O)[C@H](CO)NC(=O)[C@@H](NC(=O)[C@H](Cc1ccccc1)NC(=O)[C@@H](NC(=O)CNC(=O)[C@H](CCC(=O)O)NC(=O)C(C)(C)NC(=O)[C@@H](N)Cc1cnc[nH]1)[C@@H](C)O)[C@@H](C)O)C(C)C)C(=O)N[C@@H](C)C(=O)N[C@@H](Cc1c[nH]c2ccccc12)C(=O)N[C@@H](CC(C)C)C(=O)N[C@H](C(=O)N[C@@H](CCCNC(=N)N)C(=O)NCC(=O)N[C@@H](CCCNC(=N)N)C(=O)NCC(=O)O)C(C)C [semaglutide],plasma concentrations,[2],therapeutic relevant plasma concentrations
Cy5,effect of negative pressure on drug permeation,porcine buccal mucosa [3],effectively enhanced the drug permeation
octreotride,oral bioavailability,[4],0.5-1%
"Alexa647-Ovalbumin: Alexa647 dye linked to ovalbumin (≈5.5 nm, 45 kDa) (conjugate, UniProt P01012 2-386, looked up, Alexa647 dye) Ovalbumin: GSIGAASMEFCFDVFKELKVHHANENIFYCPIAIMSALAMVYLGAKDSTRTQINKVVRFDKLPGFGDSIEAQCGTSVNVHSSLRDILNQITKPNDVYSFSLASRLYAEERYPILPEYLQCVKELYRGGLEPINFQTAADQARELINSWVESQTNGIIRNVLQPSSVDSQTAMVLVNAIVFKGLWEKAFKDEDTQAMPFRVTEQESKPVQMMYQIGLFRVASMASEKMKILELPFASGTMSMLVLLPDEVSGLEQLESIINFEKLTEWTSSNVMEERKIKVYLPRMKMEEKYNLTSVLMAMGITDVFSSSANLSGISSAESLKISQAVHAAHAEINEAGREVVGSAEAGVDAASVSEEFRADHPFLFCIKHIATNAVLFFGRCVSP",crossing of the mucosal epithelium,porcine buccal mucosa [5],reach deep inside
